According to publication PMC8857812 (BMC Complementary Medicine and Therapies, 2022):

How the values were obtained:
Format in all cases: in vitro ADME
[1] = target: T1, CYP2E1 (Homo sapiens, UniProt P05181); test: Assessment of time-dependent inhibition of CYP2E1 in HLMs; settings: 20 μM ECH; incubation 0-30 min
T1 construct: tissue PrimeTox M10000.201800; host or cells: pooled human liver microsomes (50 donors)
Protocol: (§1) After the first incubation, an aliquot (20 μL) was transferred to another incubation tube, added probe substrates and start the reaction by an NADPH-generating system. After incubation for 0, 5, 10, 15, and 30 min, the corresponding metabolites were determined by HPLC-MS.

[2] = target: T2, CYP2C19 (Homo sapiens, UniProt P33261); test: Assessment of time-dependent inhibition of CYP2C19 in HLMs; settings: 10 μM ECH; incubation 0-30 min
T2 construct: tissue PrimeTox M10000.201800; host or cells: pooled human liver microsomes (50 donors)
T2 sequence (P33261 whole entry): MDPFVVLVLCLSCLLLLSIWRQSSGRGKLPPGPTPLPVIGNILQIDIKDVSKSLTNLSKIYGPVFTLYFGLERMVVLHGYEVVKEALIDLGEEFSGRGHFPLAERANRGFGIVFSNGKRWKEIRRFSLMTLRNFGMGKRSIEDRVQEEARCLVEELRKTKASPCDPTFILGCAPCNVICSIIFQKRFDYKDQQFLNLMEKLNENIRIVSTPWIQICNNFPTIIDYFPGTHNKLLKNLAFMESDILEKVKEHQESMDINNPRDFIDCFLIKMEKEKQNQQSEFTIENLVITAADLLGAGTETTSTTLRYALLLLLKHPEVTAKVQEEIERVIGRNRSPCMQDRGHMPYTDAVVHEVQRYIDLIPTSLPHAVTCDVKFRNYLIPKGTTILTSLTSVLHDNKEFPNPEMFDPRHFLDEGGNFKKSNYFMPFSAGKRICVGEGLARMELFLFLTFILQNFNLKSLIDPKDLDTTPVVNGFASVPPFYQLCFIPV
Protocol: as §1

[3] = target: T1, CYP2E1; test: CYP2E1 inhibition in HLMs, chlorzoxazone 6-hydroxylation probe reaction; settings: 100 μM ECH, p < 0.001 vs Control
Protocol: (§2) Eight positive controls were used for different CYPs: 10 μM furafylline for CYP1A2, 50 μM clomethiazole for CYP2E1, 50 μM tranylcypromine for CYP2C19, 1 μM ketoconazole for CYP3A4, 10 μM tranylcypromine for CYP2A6, 5 μM montelukast for CYP2C8, 10 μM sulfaphenazole for CYP2C9, and 10 μM quinidine for CYP2D6. […] The reaction was initiated by adding a newly prepared NADPH generating system, maintained at 37 °C for 30 min, and then terminated by the addition of acetonitrile. The incubation conditions were optimized to assure that the reaction was linear with time and protein concentration. Blank HLMs were incubated as Control. The supernatant was obtained after centrifugation at 14000 r/min, 15 min for LC-MS analysis.
(§3) The quantification for the corresponding metabolites was performed using a validated single LC/MS/MS run at an Ultimate 3000 HPLC system and a TSQ Quantis™ triple quadrupole mass spectrometer equipped with a heated electrospray ionization (ESI) source (Thermo Fisher, USA). […]
(§4) The relative enzyme activity was observed by High-Performance Liquid Chromatography (HPLC)-Mass Spectrometry (MS). IC50 values were calculated by Graphpad Prism 7.

[4] = target: T1, CYP2E1; test: Inhibition kinetics of CYP2E1 in HLMs (Lineweaver-Burk plots)
Description: (§5) A one enzyme Michaelis Menten model with competitive substrate inhibition: V=VmaxS/Km1+I/KI+Sa
(§6) Michaelis-Menten model with uncompetitive substrate inhibition: V=VmaxS/Km+S1+I/KIKi

[5] = target: T3, CYP3A4 (Homo sapiens, UniProt P08684); test: Time-dependent inhibition and inactivation kinetics of CYP3A4 in HLMs
T3 construct: tissue PrimeTox M10000.201800; host or cells: pooled human liver microsomes (50 donors)
T3 sequence (P08684 whole entry): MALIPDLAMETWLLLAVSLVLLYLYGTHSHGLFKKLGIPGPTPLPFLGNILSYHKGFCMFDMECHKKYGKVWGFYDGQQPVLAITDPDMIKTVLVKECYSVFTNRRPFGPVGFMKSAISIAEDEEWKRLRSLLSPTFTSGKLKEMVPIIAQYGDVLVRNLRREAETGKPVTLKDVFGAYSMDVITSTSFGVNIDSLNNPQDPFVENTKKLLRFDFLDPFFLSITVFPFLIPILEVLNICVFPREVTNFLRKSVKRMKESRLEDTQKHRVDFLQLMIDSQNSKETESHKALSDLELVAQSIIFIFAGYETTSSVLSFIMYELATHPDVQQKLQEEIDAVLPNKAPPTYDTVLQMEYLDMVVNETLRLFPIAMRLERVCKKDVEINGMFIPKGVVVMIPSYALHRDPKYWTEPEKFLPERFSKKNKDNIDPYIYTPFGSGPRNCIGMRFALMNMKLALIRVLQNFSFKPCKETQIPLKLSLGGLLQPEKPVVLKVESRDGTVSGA
Protocol: as §1
CYPs time-dependent inhibition: Kobs=KinactI/KI+I

[6] = target: T4, CYP2D6 (Homo sapiens, UniProt P10635); test: CYP2D6 inhibition in HLMs, dextromethorphan O-demethylation probe reaction; settings: HLM; even in 100 μM concentrations
T4 construct: Phenotyping experiments were conducted by probe reactions of eight HLMs CYPs; tissue PrimeTox M10000.201800; host or cells: pooled human liver microsomes (50 donors)
T4 sequence (P10635 whole entry): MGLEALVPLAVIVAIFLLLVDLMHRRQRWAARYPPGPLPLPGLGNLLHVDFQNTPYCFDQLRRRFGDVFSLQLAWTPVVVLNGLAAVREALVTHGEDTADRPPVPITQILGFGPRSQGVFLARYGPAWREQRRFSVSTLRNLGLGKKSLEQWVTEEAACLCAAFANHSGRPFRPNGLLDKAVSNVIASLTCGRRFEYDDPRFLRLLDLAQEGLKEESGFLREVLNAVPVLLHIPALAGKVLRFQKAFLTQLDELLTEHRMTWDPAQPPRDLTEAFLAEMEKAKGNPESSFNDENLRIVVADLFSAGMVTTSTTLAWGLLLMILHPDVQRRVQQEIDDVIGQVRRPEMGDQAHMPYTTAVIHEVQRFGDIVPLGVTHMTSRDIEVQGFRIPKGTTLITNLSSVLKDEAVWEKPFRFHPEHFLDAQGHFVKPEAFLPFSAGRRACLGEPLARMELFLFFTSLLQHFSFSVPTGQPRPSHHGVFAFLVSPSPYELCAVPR
Protocol: as §2
(§7) The quantification for the corresponding metabolites was performed using a validated single LC/MS/MS run at an Ultimate 3000 HPLC system and a TSQ Quantis™ triple quadrupole mass spectrometer equipped with a heated electrospray ionization (ESI) source (Thermo Fisher, USA). The mobile phase was consisted of solvent A (0.01% acetic acid and 5 mmol/L ammonium acetate) and solvent B (methanol-acetonitrile,1:1, v/v) according to the following gradient: 0-0.5 min, B 2%; 0.5-4.0 min, B 2 to 45%; 4.0-6.5 min, B 45 to 60%; 6.5-6.8 min, B 60 to 80%; 6.8-7.2 min, B 80%; 7.2-7.5 min, B 80 to 2%; 7.5-10.0 min, B 2%. […]

[7] = target: T5, CYP2A6 (Homo sapiens, UniProt P11509); test: CYP2A6 inhibition in HLMs, coumarin 7-hydroxylation probe reaction; settings: HLM; even in 100 μM concentrations
T5 construct: tissue PrimeTox M10000.201800; host or cells: pooled human liver microsomes (50 donors)
T5 sequence (P11509 whole entry): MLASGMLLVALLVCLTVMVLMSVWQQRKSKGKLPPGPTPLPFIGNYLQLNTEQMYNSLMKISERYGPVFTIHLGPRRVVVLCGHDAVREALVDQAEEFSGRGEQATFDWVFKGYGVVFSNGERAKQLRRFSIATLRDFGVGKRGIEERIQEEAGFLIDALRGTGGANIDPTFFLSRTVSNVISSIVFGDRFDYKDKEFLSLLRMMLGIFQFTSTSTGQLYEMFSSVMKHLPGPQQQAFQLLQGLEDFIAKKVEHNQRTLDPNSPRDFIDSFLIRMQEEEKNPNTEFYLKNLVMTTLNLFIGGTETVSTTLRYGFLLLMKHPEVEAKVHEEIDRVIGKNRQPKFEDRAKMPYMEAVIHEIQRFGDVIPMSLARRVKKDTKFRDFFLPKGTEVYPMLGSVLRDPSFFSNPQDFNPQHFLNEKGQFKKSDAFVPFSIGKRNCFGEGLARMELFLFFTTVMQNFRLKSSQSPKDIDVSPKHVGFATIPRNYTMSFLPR
Protocol: as §2, §7

[8] = target: T2, CYP2C19; test: CYP2C19 inhibition in HLMs, S-mephenytoin 4-hydroxylation probe reaction; settings: 100 μM ECH, p < 0.001 vs Control
Protocol: as §2, §3, §4

[9] = target: T3, CYP3A4; test: CYP3A4 inhibition in HLMs, testosterone 6β-hydroxylation probe reaction; settings: 100 μM ECH, p < 0.001 vs Control
Protocol: as §2, §3, §4

[10] = target: T6, CYP2C9 (Homo sapiens, UniProt P11712); test: CYP2C9 inhibition in HLMs, diclofenac 4′-hydroxylation probe reaction; settings: HLM; even in 100 μM concentrations
T6 construct: Phenotyping experiments were conducted by probe reactions of eight HLMs CYPs; tissue PrimeTox M10000.201800; host or cells: pooled human liver microsomes (50 donors)
T6 sequence (P11712 whole entry): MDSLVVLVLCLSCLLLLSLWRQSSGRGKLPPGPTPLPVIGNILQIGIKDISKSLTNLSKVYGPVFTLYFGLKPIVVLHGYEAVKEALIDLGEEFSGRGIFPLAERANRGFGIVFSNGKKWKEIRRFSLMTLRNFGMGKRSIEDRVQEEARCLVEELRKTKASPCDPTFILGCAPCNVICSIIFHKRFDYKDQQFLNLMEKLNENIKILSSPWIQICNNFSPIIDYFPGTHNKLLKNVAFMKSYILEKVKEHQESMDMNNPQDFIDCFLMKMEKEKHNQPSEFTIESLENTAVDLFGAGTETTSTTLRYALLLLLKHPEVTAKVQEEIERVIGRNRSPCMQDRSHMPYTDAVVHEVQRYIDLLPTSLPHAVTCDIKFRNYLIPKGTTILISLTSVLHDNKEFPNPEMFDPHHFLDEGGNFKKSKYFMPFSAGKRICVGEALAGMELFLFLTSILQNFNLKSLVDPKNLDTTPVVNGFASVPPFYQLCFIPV
Protocol: as §2, §7

[11] = target: T2, CYP2C19; test: Inhibition kinetics of CYP2C19 in HLMs (Lineweaver-Burk plots)
Description: as §5, §6

[12] = pre-incubation 0-30 min, ECH 0-50 μM, estimated from curve fitting of Kobs

T1 sequence (P05181 whole entry): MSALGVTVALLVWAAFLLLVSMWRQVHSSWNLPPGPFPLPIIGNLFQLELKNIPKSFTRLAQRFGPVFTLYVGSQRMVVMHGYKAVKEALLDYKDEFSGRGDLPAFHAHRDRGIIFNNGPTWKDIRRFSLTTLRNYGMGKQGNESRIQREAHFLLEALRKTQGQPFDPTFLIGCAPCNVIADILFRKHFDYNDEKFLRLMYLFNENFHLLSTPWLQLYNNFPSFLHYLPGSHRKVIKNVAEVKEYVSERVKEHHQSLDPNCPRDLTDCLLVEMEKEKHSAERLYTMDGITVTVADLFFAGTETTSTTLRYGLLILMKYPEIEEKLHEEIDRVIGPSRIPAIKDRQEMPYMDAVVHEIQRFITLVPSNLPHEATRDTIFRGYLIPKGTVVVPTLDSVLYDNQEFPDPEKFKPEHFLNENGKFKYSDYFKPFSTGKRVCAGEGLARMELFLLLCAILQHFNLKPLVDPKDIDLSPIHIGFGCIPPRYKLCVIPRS

Echinacoside
time dependence of CYP2E1 inhibition [1]: time-independent | time dependence of CYP2C19 inhibition [2]: time-independent | effect on relative activity of CYP2E1 [3]: significant decrease | α value for CYP2E1 [4]: not 1 | mode of inhibition of CYP2E1 ([4]; Lineweaver-Burk plots): mixed type | time dependence of CYP3A4 inhibition ([5]; 50 μM ECH, incubation 0-30 min): time-dependent | KI (time-dependent inhibition of CYP3A4) [5, 12]: 6.63 µM | Kinact (time-dependent inhibition of CYP3A4) [5, 12]: 0.066 min^− 1 | inhibition of CYP2D6 [6]: no significant inhibition | inhibition of CYP2A6 [7]: no significant inhibition | effect on relative activity of CYP2C19 [8]: significant decrease | effect on relative activity of CYP3A4 [9]: significant decrease | inhibition of CYP2C9 [10]: no significant inhibition | mode of inhibition of CYP2C19 [11]: competitive type
